Legend:
[1] = tested on: Chang cells; assay: NadA binding to Chang cells (heparin, competition with non-labelled NadA); parameters: species or system human; settings: NadA 600 nM, fluorescence microscopy
Experimental: Chang and CHO-K1 cells were incubated for 3 h at 37° C. with Alexa^488-labeled NadAΔ351-405 (250 nM) in the presence or the absence of non-labelled NadAΔ351-405 (0, 1, 2.5 or 5 μM), washed and analyzed by FACS; results shown are the relative MFI values ±SE, n=3.
Chang cells were incubated at 37° C. for 3 h with NadA 600 nM and re-incubated 10 min at 37° C. with heparin.

[2] = tested on: mo-DCs; assay: Real-time PCR of cytokine mRNA in mo-DCs; assay type: cell-based, human
Experimental: Mo-DC were pre-treated or not with IFN-γ 1000 U/ml and stimulated with NadA […] and LPS […] for 3-5-8 h. Treated and untreated cells were pelleted and used for RNA isolation. Total RNA was extracted using the TRIzolÒ reagent (GibcoBRL) according to the manufacturer's instruction, precipitated and resuspended in […] of RNAse free water (Gibco). RNA was quantified with a fluorescence spectrophotometer (BeckmanDU 530). First strand cDNA was prepared from […] of total RNA by using the Superscript™ II Reverse Transcriptase (Invitrogen) with oligodT primers (Sigma Genosys). The cDNA levels of IL12p35, IL12p40, IL-23p19, TNF-α and IL-6 were quantified by Real Time quantitative PCR using a qPCRTM Core Kit for Sybr Green I (Eurogentec) with a GeneAmp 5700 Sequence Detection System according to the manifacturer's instructions (Applied Biosystems). After an initial denaturation step at 95° C. for 10 min, temperature cycling was initiated. Each cycle consisted of 30 sec at 95° C. and 30 sec at 60° C. […]
All amplification products were cloned into a TOPO TA vector (Invitrogen) and quantified by Beckman DU 530 spectrophotometer. […]
The cDNA levels during the linear phase of amplification were normalized against HMBS. […] CT values were determined by the GeneAmp 5700 SDS software using fluorescence threshold manually set and exported into Excel for analysis.

[3] = tested on: human monocytes; assay: Soluble mediator secretion by monocytes after 3 and 7 culture days, re-stimulated with LPS; assay type: cell-based
Experimental: The secretion of the main immune mediators by human monocytes, after 3 and 7 culture days following stimulation with NadAΔ351-405 or LPS, was tested with a Bioplex immune array after 24 hours incubation with LPS. Analysis was performed to test pro-inflammatory cytokine TNFα and IL6, regulatory cytokine IL-10 and IL-12(p70) and chemokine IL-8, MCP-1, MIP1-α, RANTES and […] secretion.

[4] = tested on: mo-DCs; assay: Morphology of mo-DCs (light microscopy); assay type: cell-based, human; settings: IFN-γ priming 18 hours, NadAΔ351-405 1.5 μM, 3 hours
[5] = tested on: mo-DCs; assay: Expression of maturation markers on mo-DCs (flow cytometry); assay type: cell-based, human; settings: for CD86 expression on co-stimulation with R-848: R-848 1 μM, NadA 1.5 μM
Experimental: Reagents used were tested for low endotoxin contamination using the Limulus amoebocyte assay (Sigma). Dendritic cells were generated from human peripheral blood mononuclear cells (PBMC) as described previously. In brief, PBMC were isolated from buffy coats of healthy donors by Ficoll-Paque Plus density gradient centrifugation (Amersham Pharmacia Biotech AB). Separate monocyte and T-cell fractions were obtained from PBMCs by Percoll density gradient centrifugation (Amersham Pharmacia Biotech AB). […] DC were obtained by 6-d culture adherent monocytes in medium with 20 ng/ml IL-4 (5×10^6 units/mg, Peprotech) and 50 ng/ml GM-CSF (1×10^7 units/mg, Peprotech). Cytokines were added again on day 4 in RPMI-1640 medium supplemented with 10% FBS. […] After 24 h cells were harvested and analysed. Culture supernatants were collected frozen in liquid nitrogen and conserved at −80° C. for cytokine analysis.
After differentiation, DC were routinely stained with phycoerytrin conjugated monoclonal antibodies to human CD14, CD1a, CD83, CD86 (B7.2), CD80 (B7.1), MHC II (HLA-DR), purchased from BD-Pharminghen and Caltag. In parallel, cells were stained with the isotype matched control mAb. Cells were immunostained with the proper dilution of PE-conjugated anti human monoclonal antibodies at 4° C. for 30 min in 100 μl of phosphate-buffered saline pH 7.2 (PBS, GIBCO BRL) containing 1% FBS and 0.1% NaN3 (FACS buffer). After washing, propidium iodide was added to exclude dead cells and cell fluorescence intensities of the gated populations were measured with a EPICS XL-MCL (Coulter) flow cytometer and analyzed with EXPO 32ADC XL 3COLOR or WinMDI 2.8. software. Data were collected on 10000-20000 events.

[6] = tested on: human macrophages; assay: Cytokine and chemokine secretion by human macrophages (Bio-Plex, IL-23 ELISA); assay type: cell-based
Experimental: The secretion of various immune mediators by isolated adherent human […] and macrophages was assayed with a Bio-Plex immune array. The pro-inflammatory cytokines IL-1α, IL-1β, TNFα, IFNγ, IL-6, the growth factor GM-CSF, the regulatory cytokines IL-12 (p40), IL-12 (p70), IL-10, as well as the chemokines IL-8, MCP-1, MIP-1α, IP-10, RANTES and EOTAXIN were assayed. The lymphocyte cytokines IL-2, IL-3, IL-4, IL-5, IL-7, IL-13 and IL-15 were also assayed. IL-23 expression was assayed using an ELISA assay. No secretion of IL-2, IL-3, IL-4, IL-5, IL-7, IL-13 or IL-15 was detected.
Peripheral monocytes and macrophages were stimulated with different concentrations of NadAΔ351-405, with or without LPS (0.2 μg/ml) and IFNγ (1000 U/ml), and with purified E. coli or N. meningitis OMV.

NadAΔ351-405
protein binding to Chang cells in the presence of heparin [1]: dose-dependent reduction | IL12-p40, IL12-p35 and IL-23p19 transcription [2]: increased by NadA only if cells were primed with IFN-γ | transcription activities of genes encoding IL-6, TNFα, p40, p35 and p19 relative to LPS-activated cells ([2]; IFN-γ primed mo-DCs): < 1% | IL-6 production ([3]; after 3 days of culture, re-stimulated with LPS): greater production of IL-6 compared to LPS-treated cells | IL-10 production ([3]; cultured cells re-stimulated with LPS): able to induce IL-10 production | cell morphology [4]: some cells became elongated and tended to cluster | CD86 expression on co-stimulation with R-848 ([5]; no IFN-γ priming): addition of the two effects | CD86 expression on co-stimulation with R-848 ([5]; after IFN-γ priming, flagellin 10 μg/ml): maximal CD86 expression | CD83 level relative to that induced by LPS ([5]; after IFN-γ priming): ~50% | CD86 expression, dose response ([5]; after IFN-γ priming): effectively induced CD86 also in the submicromolar concentration range | CD86 level ([5]; after IFN-γ priming): reached the same value observed in LPS-treated cells | IFN-γ potentiation of NadA effect on CD86 ([5]; at higher NadA concentrations): 2-3 fold | CD86 expression, dose response ([5]; no IFN-γ priming): not different from control cells below 1 μM NadA | plasma membrane HLA-DR expression ([5]; no IFN-γ priming): partially increased | CD83 expression ([5]; no IFN-γ priming, 24 hour exposure, 1 μM / 1.5 μM): not increased | EOTAXIN expression [6]: decrease | GM-CSF secretion [6]: No secretion | IL-1α production [6]: No IL-1α was produced | IL-1β and TNFα production [6]: produced only IL-1β and TNFα | IL-10 production [6]: induced the production | IP-10 production ([6]; NadA alone): In neither monocytes nor macrophages was NadA alone able to produce IP-10 | IL-12(p40) expression ([6]; NadA alone, even in the presence of LPS and IFNγ): decrease | IL-6 secretion ([6]; together with IFNγ): increasing secretions

Source: patent publication US20110008279A1, “Methods and Compositions Relating to Adhesins as Adjuvants” (priority 2005, published 2011)
